According to patent publication US7407934B2, “Methods for regulating postprandial blood glucose” (Amylin Pharmaceuticals, Inc., priority 1993, dated 2008):
Positions of bridges follow the written chain, without caps; N, C: chain ends. Residues, ends and D or L forms follow the SMILES beside them.

Tests used:
[1] = system: insulin-stimulated glycogen synthesis in soleus muscle; assay: Soleus muscle assay (inhibition of insulin-stimulated glycogen synthesis); format: cell-based, rat
Protocol: Concentrations of peptide dissolved in carrier-free buffers are determined by quantitative amino acid analysis, as described therein. The ability of compounds to act as agonists in this assay is determined by measuring EC50 values. […] Similar results were obtained with other agonist compounds listed above.

[2] = cited from earlier work
[3] = Plasma amylin concentration after subcutaneous rat amylin (immuno-enzymometric assay); format: in vivo; details: sc, 1 μg, Peak plasma amylin concentration, 1 μg s.c., 20 min
Protocol: The plasma from 250 μL samples collected at 10 min intervals was separated and frozen at −20° C. for analysis by a 2-site immuno-enzymometric assay developed in-house.
To perform the immunoassay, black microtiter plates (Dynatech, Chantilly, Va.) were coated with the antibody F024-4.4 [Phelps JL, Blase E, Koda JE, unpublished] by overnight incubation at 4° C. with 20 μg antibody per mL in 50 mM carbonate at pH 9.6. Plates were washed with 0.05 M Tris/0.15 M sodium chloride/0.02% sodium azide/0.1% Tween 20 (TBS/Tween), and blocked with 1.0% nonfat dry milk powder in the same carbonate buffer for one hour at room temperature. Samples were thawed on ice, and diluted in 4% BSA/200 mg/dl bovine cholesterol supertrate (Miles Pentex reagents, Miles Laboratories, Kankakee, Ill.) if necessary. Samples or standards were added to the coated and blocked plates and incubated for one hours at room temperature. After washing, the F025-27 detection antibody conjugated to alkaline phosphatase was added. […] Bound enzyme was detected by incubation of the plates with the fluorescent substrate 4-methylumbelliferyl phosphate at 50 ug/ml in 1M diethanolamine/0.5 mM MgCl, pH 9.8 for 40 minutes at room temperature. The fluorescent signal was measured with a Dynatech Microfluor plate reader, and data analyzed on Multicalc software (Wallac, Gaithersburg, Md.). […]

[4] = system: glucose absorption from the small intestine; assay: Glucose absorption from duodenum / perfused small bowel in anesthetized rats; format: in vivo, rat
Source text: Because the studies involved anesthetized rather than conscious rats, they are not considered in analyzing gastric motility, e.g., rate of emptying of stomach contents into the duodenum. However, the studies indicate that absorption of glucose from the duodenum into the blood was not delayed by amylin. […] In anesthetized rats, a segment of small bowel, still connected to the animal via its blood supply, was exteriorized and cannulae inserted so that the small bowel could be perfused with glucosed solutions of controlled composition. The animals were cannulated also via an artery (for blood sampling) and via a vein (for infusion or amylin, insulin and glucose). The lumen was perfused with a tritium-labelled glucose solution. The passage of glucose from the lumen of the gut into the rat was measured by the appearance of the tritium label in the plasma. The supposition that such appearance of tritium in the plasma was indeed measuring glucose uptake from the gut was tested by administration of the glucose transport blocker, phloridzin. […] To ensure that the glucose gradient between the gut lumen and plasma remained constant, during amylin infusions, plasma glucose was “clamped” by an infusion of glucose that was varied in response to changes in plasma glucose.

[5] = system: gastric emptying; assay: Gastric emptying of Phenol Red methylcellulose gel after gavage (Example 5); format: in vivo, rat; details: for ED50 for suppression of gastric emptying: diabetic BB rats fasted 6 hours; for ED50 for change in gastric emptying: normal HSD rats fasted 20 hours
Protocol: When BB rats were confirmed as being diabetic by glycosuria on at least 2 days, they were treated with daily s.c. injections of ultralente recombinant human insulin (Humulin-U, Eli Lilly, Indianapolis). Insulin therapy was aimed at maintaining glucose but minimizing ketones in the urine, in order to avoid hypoglycemic deaths. In fact, glycosuria was present in 88% of measurements and ketonuria in 52%. The average duration of diabetes was 53±5 days, and daily insulin requirements were 4.7±0.3 units. All animals were housed at […] in a 12:12 hour light:dark cycle (experiments being performed during the light cycle) and were fed and watered ad libitum (Diet LM-485, Teklad, Madison, Wis.).
The determination of gastric emptying by the method described below has usually been performed after a fast of ˜20 hours to ensure that the stomach contained no chyme that would interfere with spectrophotomertric absorbance measurements. However, diabetic rats treated with Ultralente insulin could not be fasted for 20 hours. […] Such animals were therefore fasted for only 6 hours before measurement of gastric emptying. Non-diabetic rates were deprived of food for either 6 or 20 hours prior to experimentation. We have note that even non-diabetic BB rats have elevated glycated hemoglobin concentrations, possibly indicating subclinical insulitis. Both non-diabetic Harlan Sprague Dawley rats and non-diabetic BB rats animals were therefor use in comparisons with diabetic rats. Thus there were 5 treatment groups:
Twenty minutes after gavage, rats were anesthetized using 5% halothane, the stomach exposed and clamped at the pyloric and lower esophageal spincters using artery forceps, removed and opened into an alkaline solution which was made up to a fixed volume. Stomach content was derived from the intensity of the phenol red in the alkaline solution, measured by absorbance at a wavelength of 560 nm. In most experiments, the stomach was clear. In other experiments, particulate gastric contents were centrifuged to clear the solution for absorbance measurements. Where the diluted gastric contents remained turbid, the spectroscopic absorbance due to Phenol Red was derived as the difference between that present in alkaline vs acidified diluent. In separate experiments on 7 rats, the stomach and small intestine were both excised and opened into an alkaline solution. The quantity of phenol red that could be recovered from the upper gastrointestinal tract within 20 minutes of gavage was 89±4%. To account for a maximal dye recovery of less than 100%, stomach contents remaining after 20 min were expressed as a fraction of the gastric contents recovered from control rats sacrificed immediately after gavage in the same experiment.
Pairwise comparisons were performed using one-way analysis of variance and the Student-Newman-Keuls multiple comparisons test (Instat v2.0, GraphPad Software, San Diego) using P<0.05 as the level of significance.

[6] = rats, rabbits, humans with Paget's disease; cited from earlier work
[7] = Oral glucose tolerance test in dogs during amylin infusion (Example 1); format: in vivo, dog
Protocol: Mongrel dogs (9 males, 12-17 kg wt. range) were used for this study. All animals were fasted overnight prior to each study. Each animal served as its own control for all protocols. Animals were equilibrated for 30-60 minutes prior to the start of each protocol.
25% glucose (1 gm/kg) was administered by mouth at t=0 minutes. […] Samples for insulin, glucose and lactate were obtained at 15 minutes intervals from t=−45 to t=180 minutes.

[8] = system: plasma renin activity; details: intact rats, given subcutaneously
Source text: This is important because lowered blood pressure is a strong stimulus to renin release.

Compound: CC[C@H](C)[C@H](NC(=O)[C@H](C)NC(=O)CNC(=O)[C@H](Cc1ccccc1)NC(=O)[C@H](CC(N)=O)NC(=O)[C@H](CC(N)=O)NC(=O)[C@H](CO)NC(=O)[C@H](CO)NC(=O)[C@H](Cc1c[nH]cn1)NC(=O)[C@@H](NC(=O)[C@H](CC(C)C)NC(=O)[C@H](Cc1ccccc1)NC(=O)[C@H](CC(N)=O)NC(=O)[C@H](C)NC(=O)[C@H](CC(C)C)NC(=O)[C@H](CCCNC(=N)N)NC(=O)[C@H](CCC(N)=O)NC(=O)[C@@H](NC(=O)[C@H](C)NC(=O)[C@@H]1CCCCNC(=O)C[C@H](NC(=O)[C@@H](N)CCCCN)C(=O)N[C@@H](CC(N)=O)C(=O)N[C@@H]([C@@H](C)O)C(=O)N[C@@H](C)C(=O)N[C@@H]([C@@H](C)O)C(=O)N1)[C@@H](C)O)C(C)C)C(=O)N[C@@H](CC(C)C)C(=O)N[C@@H](CO)C(=O)N[C@@H](CO)C(=O)N[C@H](C(=O)N[C@@H](CC(N)=O)C(=O)N[C@H](C(=O)NCC(=O)N[C@@H](CO)C(=O)N[C@@H](CC(N)=O)C(=O)N[C@H](C(=O)N[C@@H](Cc1ccc(O)cc1)C(N)=O)[C@@H](C)O)C(C)C)[C@@H](C)O [^2,7Cyclo-[^2Asp, ^7Lys]-h-Amylin, ^2,7Cyclo-[^2Asp,^7Lys]-h-Amylin] (H-KDNTATKATQRLANFLVHSSNNFGAILSSTNVGSNTY-NH2; lactam 2-7; N-terminus and C-terminus assumed)
- EC50 [1]: 6.62 nM

Compound: CC(C)C[C@H](NC(=O)[C@H](CC(N)=O)NC(=O)[C@H](CC(N)=O)NC(=O)[C@H](CO)NC(=O)[C@H](CO)NC(=O)[C@H](CCCNC(=N)N)NC(=O)[C@@H](NC(=O)[C@H](CC(C)C)NC(=O)[C@H](Cc1ccccc1)NC(=O)[C@H](CC(N)=O)NC(=O)[C@H](C)NC(=O)[C@H](CC(C)C)NC(=O)[C@H](CCCNC(=N)N)NC(=O)[C@H](CCC(N)=O)NC(=O)[C@@H](NC(=O)[C@H](C)NC(=O)[C@@H]1CSSC[C@H](NC(=O)[C@@H](N)CCCCN)C(=O)N[C@@H](CC(N)=O)C(=O)N[C@@H]([C@@H](C)O)C(=O)N[C@@H](C)C(=O)N[C@@H]([C@@H](C)O)C(=O)N1)[C@@H](C)O)C(C)C)C(=O)NCC(=O)N1CCC[C@H]1C(=O)N[C@H](C(=O)N[C@@H](CC(C)C)C(=O)N1CCC[C@H]1C(=O)N1CCC[C@H]1C(=O)N[C@H](C(=O)N[C@@H](CC(N)=O)C(=O)N[C@H](C(=O)NCC(=O)N[C@@H](CO)C(=O)N[C@@H](CC(N)=O)C(=O)N[C@H](C(=O)N[C@@H](Cc1ccc(O)cc1)C(N)=O)[C@@H](C)O)C(C)C)[C@@H](C)O)C(C)C [amylin]
- Plasma glucose after injection ([2]; prolonged increase from about 6): ~11 mM
- Plasma lactate after injection ([2]; rise from about 0.5, i.v. and s.c.): ~1.5 mM
- Cmax [3]: 0.076 nM
- Absorption of glucose from the duodenum into the blood ([4]; amylin infusion 0.35 nm/kg/min, glucose 1 g/kg): not delayed
- Rate of transit of labelled glucose from small bowel lumen into plasma ([4]; perfused exteriorized small bowel segment): no effect
- ED50 of inhibition of gastric emptying ([5]; both normal and diabetic rats (summary)): ~1 µg
- ED50 for suppression of gastric emptying ([5]; s.c.): 2.3 nmol/gk
- ED50 for suppression of gastric emptying ([5]; s.c., ±0.18 log units): 2.2 µg
- Dye recoverable from stomach 20 min after gavage ([5]; diabetic rats, 10 μg s.c. (P=0.14)): the same as that recoverable immediately after gavage
- Dose restoring gastric emptying in a diabetic rat to the rate of normal rats not administered amylin ([5]; estimated from fitted curves of FIG. 14): ~2 µg
- Plasma concentrations 50% effective in inhibiting gastric emptying ([5]; inferred from plasma profile after 1 μg s.c.): less than 74 pM
- ED50 for change in gastric emptying ([5]; s.c.): 0.60 nmole amylin/kg body weight
- ED50 for change in gastric emptying ([5]; s.c. 5 min before gavage, ±0.19 log units): 0.43 µg
- Dye recoverable from stomach 20 min after gavage ([5]; normal HSD rats, 1 μg s.c. (P=0.22)): the same as that recoverable immediately after gavage
- Effect on gastric emptying (in words) ([5]; s.c. 5 min before gavage, 0.01-100 μg): dose dependent suppression of gastric emptying
- Lowering of plasma calcium [6]: up to 20%
- Plasma glucose after oral glucose load ([7]; amylin infusion 50, 100 and 300 pmol/kg/min, glucose 1 gm/kg by mouth): reduced both the rate of rise in plasma glucose as well as the peak plasma glucose
- Effects on plasma lactate ([7]; oral glucose load): unremarkable
- Plasma renin activity [8]: markedly increases
